Assay results taken from patent US20160311812A1, “ADENOSINE A1 AGONISTS AS MEDICAMENTS FOR KIDNEY DISORDERS” (BAYER PHARMA AKTIENGESELLSCHAFT, priority 2013, published 2016).

Legend:
[1] = system: 5/6 nephrectomy rat model; assay: Functional and structural renal dysfunction in 5/6 nephrectomized rats; type: in vivo; conditions: 4 weeks; for End organ injury marker concentration in the urine: hFABP / End organ injury marker concentration in the urine: hFABP per creatinine: ELISA; for Kidney injury marker-1 [gene expression] / Lipocalin-2 [gene expression] / Osteopontin [gene expression]: renal cortex
Text: (§1) B-3. Effects of Partial A1 Agonists on Renal and Cardiac Function in 5/6 Nephrectomized Rats (Example 1 for Chronic Kidney Disorder)
(§2) 5/6 nephrectomy in the rat, in which one kidney and the renal cortex of the second kidney are surgically removed (=5/6 of functional kidney tissue) is an established animal model for interstitial renal fibrosis and chronic renal insufficiency [C. Fleck et al., “Suitability of 5/6 nephrectomy (5/6NX) for the induction of interstitial renal fibrosis in rats Influence of sex, strain, and surgical procedure”, Exp. Tox. Pathology 2006, 57, 195-205]. The model is characterized by progressive proteinuria, disturbed tubular electrolyte transport, a reduced glomerular filtration rate, an increase in urinary output, interstitial fibrosis with reactively occurring lymphocyte infiltrates, glomerulosclerosis and tubular atrophy. The level of proteinuria is a specific index of the renal function prognosis: the higher the proteinuria, the greater is the functional and structural kidney injury and therefore progression of chronic to terminal renal insufficiency (uraemia). During monitoring of therapy, e.g. with the ACE inhibitor enalapril, the course of proteinuria provides information on the functional and structural response to the therapy and thus on the renal function prognosis. As a result of the renal insufficiency and accumulation of umemic toxins, in the animals there is secondary development of a umemic cardiomyopathy, depending on the severity associated with hypertension, increased heart rate, reduced parasympathetic tone, myocardial, left-ventricular hypertrophy and fibrosis, diastolic dysfunction and an increased prevalence of arrhythmias [Svilerova et al. 2010 Physiol Res 59: S81-S88).
(§3) Procedure: male Wistar:WU rats (210-250 g) from Charles River had the left kidney and the renal cortex of the right kidney removed (=SNX) in one session; sham-operated rats served as control group (=SOP). The following groups, each with 12 rats per group, were investigated:
(§4) Group 2 SNX+placebo (60 g glycerol+100 g water+969 g PEG-400)
(§5) Group 3 SNX+10 mg/kg body weight/day enalapril (reference therapy, in the drinking water)
(§6) Group 4 SNX+0.1 mg/kg body weight/day partial A1 agonist EXAMPLE 1, p.o. in placebo
(§7) Group 5 SNX+1.0 mg/kg body weight/day partial A1 agonist EXAMPLE 1, p.o. in placebo
(§8) Group 6 SNX+0.3 mg/kg body weight/day partial A1 agonist EXAMPLE 4, p.o. in placebo
(§9) Group 7 SNX+3.0 mg/kg body weight/day partial A1 agonist EXAMPLE 4, p.o. in placebo
(§10) Three weeks after 5/6 nephrectomy, the rats developed manifest proteinuria, from this time point the rats were treated for a further four weeks corresponding to the groups stated above. At the end of the protocol, the following samples were obtained/measurements were carried out: eight-hour urine collection with determination of the concentration of hFABP in the urine by ELISA (Rat/Mouse h-FABP ELISA, Hycultbiotech), as marker for end organ damage, invasive measurement of the isoprenaline-induced increase (cumulatively 12.5 ng-250 ng/kg isoprenaline, i.v.) in systolic and diastolic left ventricular function, and TaqMan analyses of renal injury markers in the renal cortex.

[2] = system: 5/6 nephrectomy rat model; assay: Left-ventricular diastolic dysfunction under isoprenaline infusion in 5/6 nephrectomized rats; type: in vivo; conditions: 4 weeks
Text: as §1, §2, §3, §4, §5, §6, §7, §8, §9, §10

[3] = system: unilaterally nephrectomized SHR; assay: Functional and structural renal dysfunction in unilaterally nephrectomized spontaneously hypertensive rats; type: in vivo, rat; conditions: Group 5: SNX + 3.0 mg/kg body weight/day p.o., 4 weeks
Text: (§11) B-4. Effects of Partial A1 Agonists on Renal and Cardiac Function in Unilaterally Nephrectomized and Spontaneously Hypertensive Rats (Example 2 for Chronic Kidney Disorders)
(§12) Unilaterally nephrectomized, spontaneously hypertensive rats (SHR) are an established animal model for investigating the development and progression of hypertensive damage of the glomeruli in the remaining kidney [H. Kinuno et al., “Effects of uninephrectomy on renal structural properties in spontaneously hypertensive rats”, Clin and Exp Pharmacol and Physiol 2005, 32, 173-178]. […] Furthermore, renal excretion of substances usually eliminated in the urine, such as creatinine and urea, is reduced and the electrolyte metabolism is disturbed, the latter being associated with volume retention.
(§13) Procedure: male SHR rats (180-220 g) from Taconic had the left kidney removed in one session (=UNX). Normotensive Wistar Kyoto rats (WKY) from Taconic served as control. The following groups, each with 12 rats per group, were investigated:
(§14) Group 2 UNX+placebo (60 g glycerol+100 g water+969 g PEG-400)
(§15) Group 3 UNX+10 mg/kg body weight/day enalapril (reference therapy, in the drinking water)
(§16) Group 4 SNX+1.0 mg/kg body weight/day partial A1 EXAMPLE 1, p.o. in placebo
(§17) Group 5 SNX+3.0 mg/kg body weight/day partial A1 EXAMPLE 4, p.o. in placebo
(§18) Three weeks after unilateral nephrectomy, the SHRs developed manifest hypertensive damage of the glomeruli in the remaining kidney, from this time point on the rats were treated for a further four weeks corresponding to the groups given above. At the end of the protocol, the following samples were obtained/measurements were carried out: eight-hour urine collection, invasive measurement of systolic and diastolic left ventricular function, and TaqMan analyses of renal injury markers in the renal cortex.

[4] = system: unilaterally nephrectomized SHR; assay: Functional and structural myocardial dysfunction in unilaterally nephrectomized spontaneously hypertensive rats; type: in vivo, rat; conditions: Group 5: SNX + 3.0 mg/kg body weight/day p.o., 4 weeks
Text: as §11, §12, §13, §14, §15, §16, §17, §18

[5] = Group 6: SNX + 0.3 mg/kg body weight/day p.o.
[6] = Group 7: SNX + 3.0 mg/kg body weight/day p.o.

## N#Cc1c(SCc2csc(-c3ccc(Cl)cc3)n2)nc(N2CCCC2)c(C#N)c1-c1ccc(OCCO)cc1 [EXAMPLE 4, 2-({[2-(4-Chlorophenyl)-1,3-thiazol-4-yl]methyl}sulphanyl)-4-[4-(2-hydroxyethoxy)phenyl]-6-(pyrrolidin-1-yl)pyridine-3,5-dicarbonitrile]
[1]; [5]
  P-creatinine: 64 ± 1 µmol/L
  P-urea: 11 ± 0.3 mmol/L
  U-creatinine: 3.1 ± 0.2 μmol/ml urine/kg BW/h
  U-protein: 1.70 ± 0.29 μmol/ml urine/kg BW/h
  U-sodium: 19 ± 3 μmol/ml urine/kg BW/h
  U-urea: 330 ± 25 μmol/ml urine/kg BW/h
  Urine volume: 1.8 ± 0.1 ml/kg BW/h
  End organ injury marker concentration in the urine: hFABP: 3125 ± 497 pg hFABP/ml urine/h
  End organ injury marker concentration in the urine: hFABP per creatinine: 386 ± 57 pg hFABP/μmol creatinine
  Kidney injury marker-1 [gene expression]: 68 ± 14 rel. expression
  Lipocalin-2 [gene expression]: 340 ± 49 rel. expression
  Osteopontin [gene expression]: 6882 ± 1240 rel. expression
[1]; [6]
  P-creatinine: 63 ± 1 µmol/L
  P-urea: 11 ± 0.3 mmol/L
  U-creatinine: 2.7 ± 0.3 μmol/ml urine/kg BW/h
  U-protein: 0.97 ± 0.12 μmol/ml urine/kg BW/h
  U-sodium: 43 ± 5 μmol/ml urine/kg BW/h
  U-urea: 281 ± 30 μmol/ml urine/kg BW/h
  Urine volume: 1.8 ± 0.2 ml/kg BW/h
  End organ injury marker concentration in the urine: hFABP: 1706 ± 249 pg hFABP/ml urine/h
  End organ injury marker concentration in the urine: hFABP per creatinine: 218 ± 39 pg hFABP/μmol creatinine
  Kidney injury marker-1 [gene expression]: 56 ± 18 rel. expression
  Lipocalin-2 [gene expression]: 283 ± 45 rel. expression
  Osteopontin [gene expression]: 6340 ± 1656 rel. expression
[2]; isoprenaline 0 ng/kg body weight, Group 6: SNX + 0.3 mg/kg body weight/day p.o.
  left-ventricular pressure decrease as a function of time: 6518 ± 221 mmHg/s
[2]; isoprenaline 0 ng/kg body weight, Group 7: SNX + 3.0 mg/kg body weight/day p.o.
  left-ventricular pressure decrease as a function of time: 6884 ± 383 mmHg/s
[2]; isoprenaline 12.5 ng/kg body weight, Group 6: SNX + 0.3 mg/kg body weight/day p.o.
  left-ventricular pressure decrease as a function of time: 7733 ± 233 mmHg/s
[2]; isoprenaline 12.5 ng/kg body weight, Group 7: SNX + 3.0 mg/kg body weight/day p.o.
  left-ventricular pressure decrease as a function of time: 8369 ± 395 mmHg/s
[2]; isoprenaline 25 ng/kg body weight, Group 6: SNX + 0.3 mg/kg body weight/day p.o.
  left-ventricular pressure decrease as a function of time: 8001 ± 224 mmHg/s
[2]; isoprenaline 25 ng/kg body weight, Group 7: SNX + 3.0 mg/kg body weight/day p.o.
  left-ventricular pressure decrease as a function of time: 8557 ± 396 mmHg/s
[2]; isoprenaline 50 ng/kg body weight, Group 6: SNX + 0.3 mg/kg body weight/day p.o.
  left-ventricular pressure decrease as a function of time: 8763 ± 195 mmHg/s
[2]; isoprenaline 50 ng/kg body weight, Group 7: SNX + 3.0 mg/kg body weight/day p.o.
  left-ventricular pressure decrease as a function of time: 9100 ± 341 mmHg/s
[2]; isoprenaline 100 ng/kg body weight, Group 6: SNX + 0.3 mg/kg body weight/day p.o.
  left-ventricular pressure decrease as a function of time: 9621 ± 212 mmHg/s
[2]; isoprenaline 100 ng/kg body weight, Group 7: SNX + 3.0 mg/kg body weight/day p.o.
  left-ventricular pressure decrease as a function of time: 10263 ± 294 mmHg/s
[2]; isoprenaline 250 ng/kg body weight, Group 6: SNX + 0.3 mg/kg body weight/day p.o.
  left-ventricular pressure decrease as a function of time: 9968 ± 162 mmHg/s
[2]; isoprenaline 250 ng/kg body weight, Group 7: SNX + 3.0 mg/kg body weight/day p.o.
  left-ventricular pressure decrease as a function of time: 10385 ± 352 mmHg/s
[3]
  P-creatinine: 58 ± 0.6 µmol/L
  P-urea: 8.7 ± 0.2 mmol/L
  U-creatinine: 3.4 ± 0.9 μmol/ml urine/kg BW/h
  U-protein: 0.96 ± 0.26 μmol/ml urine/kg BW/h
  U-sodium: 46 ± 11 μmol/ml urine/kg BW/h
  U-urea: 337 ± 89 μmol/ml urine/kg BW/h
  Urine volume: 1.8 ± 0.2 ml/kg BW/h
[3]; renal cortex
  CYR61 [gene expression]: 274 ± 21 rel. expression
  Lipocalin-2 [gene expression]: 119 ± 9 rel. expression
[4]
  Diastolic blood pressure: 144 ± 6 mmHg
  Heart rate: 326 ± 9 beats/min
  Left ventricular hypertrophy (LVS/RV ratio, mg/mg): 4.5 ± 0.2 mg/mg
  Left-ventricular end-diastolic pressure: 10.22 ± 1.6 mmHg
  Left-ventricular pressure: 196 ± 5 mmHg
  Pressure decrease over time: −10680 ± 524 mmHg/s
  Pressure increase over time: 9419 ± 383 mmHg/s
  Systolic blood pressure: 205 ± 5 mmHg
